Like-named read-outs stand apart in the source and are kept apart here. Non-standard residues stand in square brackets, D forms with d. Residues, ends and D or L forms follow the SMILES beside them. β3hE = N[C@@H](CCC(=O)O)CC(=O)O; β3hQ = NC(=O)CC[C@H](N)CC(=O)O; β3hL = CC(C)C[C@H](N)CC(=O)O; β3hD = NC(CC(=O)O)CC(=O)O; β3hS = N[C@@H](CO)CC(=O)O
Legend:
[1] = molecular target: T1, p300_330–420 (TAZ1 domain) (Homo sapiens, UniProt Q09472); assay: ITC direct titration to p300; assay type: binding; details: 35 °C
T1 construct: from residues 330-420 (used for FA and ITC experiments); GST (N, cleaved yes); made in house; host or cells: E. coli BL21 pLysS (pGEX-4T-1)
T1 sequence (Q09472 330-420): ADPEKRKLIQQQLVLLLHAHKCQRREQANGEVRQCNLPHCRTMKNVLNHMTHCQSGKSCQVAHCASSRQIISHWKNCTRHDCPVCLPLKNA

[2] = molecular target: T2, p300–Flu-HIF-1α (Homo sapiens, UniProt Q09472); assay: Fluorescence anisotropy competition against p300–Flu-HIF-1α; assay type: binding
T2 construct: from residues 330-420 (used for FA and ITC experiments); GST (N, cleaved yes); made in house; host or cells: p300: E. coli BL21 pLysS (pGEX-4T-1); tracer peptide: solid-phase synthesis
T2 sequence (Q09472 330-420): as above

[3] = 50 nM p300_330–420, 25 nM Flu-HIF-1α786–826 tracer, 40 mM Na-phosphate, 100 mM NaCl, 1 mM DTT, 0.01% Triton-X, pH 7.4, 10 min at 35 °C, fixed KD = 64 nM for tracer, three repeats, read-out: Kd,app FA competition against p300–Flu-HIF-1α
[4] = 5 µM p300_330–420 in cell, 60 µM ligand in syringe, 40 mM Na-phosphate pH 7.5, 100 mM NaCl, 1 mM DTT, global fit with ternary intermediate model, 68% confidence intervals in brackets, read-out: Direct binding to p300, K d

Compound | Kd ([1]; 5 µM protein in cell, 60 µM peptide in syringe, 40 mM Na-phosphate, 100 mM NaCl, 1 mM DTT pH 7.4, average of three independent measurements, read-out: KD of HIF-1α776-826 binding to p300) | Kd [2, 3] | Kd [1, 4] | Kd ([2]; determined by FA competition with HIF-1α776–826 as competitor (competitor KD 50 ± 8 nM from ITC), 50 nM p300, 25 nM tracer, 35 °C, read-out: KD of the fluorescent tracer for p300) | Kd ([2]; as other FA competition values, average and standard deviation of two individual titrations (Fig. 2 and Fig. S11), SD, read-out: Kd,app FA competition against p300–Flu-HIF-1α)
CC[C@H](C)[C@H](NC(=O)[C@@H]1CCCN1C(=O)[C@H](C)NC(=O)[C@H](CC(N)=O)NC(=O)[C@@H](NC(=O)[C@H](CCC(=O)O)NC(=O)[C@H](CS)NC(=O)[C@H](CC(=O)O)NC(=O)[C@H](Cc1ccc(O)cc1)NC(=O)[C@H](CO)NC(=O)[C@@H](NC(=O)[C@H](CC(C)C)NC(=O)[C@H](CCC(N)=O)NC(=O)[C@@H]1CCCN1C(=O)[C@H](CC(C)C)NC(=O)CNC(=O)[C@H](CO)NC(=O)[C@H](CCC(=O)O)NC(=O)[C@H](CC(=O)O)NC(=O)[C@H](CCSC)NC(=O)[C@H](CO)NC(=O)[C@H](CCC(N)=O)NC(=O)CNC(=O)[C@H](CC(C)C)NC(=O)[C@H](CC(C)C)NC(=O)[C@H](CCCNC(=N)N)NC(=O)[C@H](CS)NC(=O)[C@H](C)NC(=O)[C@H](CC(C)C)NC(=O)[C@H](CC(=O)O)NC(=O)[C@H](CO)NC(C)=O)[C@@H](C)O)C(C)C)C(=O)N[C@@H](CCC(N)=O)C(=O)NCC(=O)N[C@@H](CO)C(=O)N[C@@H](CCCNC(=N)N)C(=O)N[C@@H](CC(N)=O)C(=O)N[C@@H](CC(C)C)C(=O)N[C@@H](CC(C)C)C(=O)N[C@@H](CCC(N)=O)C(=O)NCC(=O)N[C@@H](CCC(=O)O)C(=O)N[C@@H](CCC(=O)O)C(=O)N[C@@H](CC(C)C)C(=O)N[C@@H](CC(C)C)C(=O)N[C@@H](CCCNC(=N)N)C(=O)N[C@@H](C)C(=O)N[C@@H](CC(C)C)C(=O)N[C@@H](CC(=O)O)C(=O)N[C@@H](CCC(N)=O)C(=O)N[C@H](C(=O)N[C@@H](CC(N)=O)C(N)=O)C(C)C [HIF-1α776–826] | 50 ± 8 nM | 57 ± 4 nM |  |  | 
Ac-DEEVLMSLVIEMGLDRIKELPELWLGQNEFDFM-NH2 [CITED2ΔN] |  | 86 ± 5 nM | 51 nM |  | 
CC[C@H](C)[C@H](NC(C)=O)C(=O)N[C@@H](CC(=O)O)C(=O)N[C@H](C(=O)N[C@@H](CC(=O)O)C(=O)N[C@@H](Cc1ccccc1)C(=O)N[C@H](C(=O)N[C@@H](CC(=O)O)C(=O)N[C@@H](CCC(=O)O)C(=O)N[C@@H](CCC(=O)O)C(=O)N[C@H](C(=O)N[C@@H](CC(C)C)C(=O)N[C@@H](CCSC)C(=O)N[C@@H](CO)C(=O)N[C@@H](CC(C)C)C(=O)N[C@H](C(=O)N[C@H](C(=O)N[C@@H](CCC(=O)O)C(=O)N[C@@H](CCSC)C(=O)NCC(=O)N[C@@H](CC(C)C)C(=O)N[C@@H](CC(=O)O)CC(=O)N[C@@H](CCCNC(=N)N)C(=O)N[C@H](C(=O)N[C@@H](CCC(=O)O)CC(=O)N[C@@H](CC(C)C)C(=O)N1CCC[C@H]1C(=O)N[C@@H](CCC(=O)O)C(=O)N[C@@H](CC(C)C)C(=O)N[C@@H](Cc1c[nH]c2ccccc12)C(=O)N[C@H](CC(=O)NCC(=O)N[C@@H](CCC(N)=O)C(=O)N[C@@H](CC(N)=O)C(=O)N[C@@H](CCC(=O)O)C(=O)N[C@@H](Cc1ccccc1)C(=O)N[C@@H](CC(=O)O)C(=O)N[C@@H](Cc1ccccc1)C(=O)N[C@@H](CCSC)C(N)=O)CC(C)C)[C@@H](C)CC)[C@@H](C)CC)C(C)C)C(C)C)[C@@H](C)CC)[C@@H](C)O [3b] (Ac-IDTDFIDEEVLMSLVIEMGL[β3hD]RI[β3hE]LPELW[β3hL]GQNEFDFM-NH2) |  | 112 ± 13 nM | 98 nM |  | 
CC[C@H](C)[C@H](NC(C)=O)C(=O)N[C@@H](CC(=O)O)CC(=O)N[C@H](C(=O)N[C@@H](CC(=O)O)CC(=O)N[C@@H](Cc1ccccc1)C(=O)N[C@H](C(=O)N[C@@H](CC(=O)O)CC(=O)N[C@@H](CCC(=O)O)C(=O)N[C@@H](CCC(=O)O)C(=O)N[C@H](C(=O)N[C@@H](CC(C)C)C(=O)N[C@@H](CCSC)C(=O)N[C@@H](CO)C(=O)N[C@@H](CC(C)C)C(=O)N[C@H](C(=O)N[C@H](C(=O)N[C@@H](CCC(=O)O)C(=O)N[C@@H](CCSC)C(=O)NCC(=O)N[C@@H](CC(C)C)C(=O)N[C@@H](CC(=O)O)C(=O)N[C@@H](CCCNC(=N)N)C(=O)N[C@H](C(=O)N[C@@H](CCCCN)C(=O)N[C@@H](CCC(=O)O)C(=O)N[C@@H](CC(C)C)C(=O)N1CCC[C@H]1C(=O)N[C@@H](CCC(=O)O)C(=O)N[C@@H](CC(C)C)C(=O)N[C@@H](Cc1c[nH]c2ccccc12)C(=O)N[C@@H](CC(C)C)C(=O)NCC(=O)N[C@@H](CCC(N)=O)C(=O)N[C@@H](CC(N)=O)C(=O)N[C@@H](CCC(=O)O)C(=O)N[C@@H](Cc1ccccc1)C(=O)N[C@@H](CC(=O)O)C(=O)N[C@@H](Cc1ccccc1)C(=O)N[C@@H](CCSC)C(N)=O)[C@@H](C)CC)[C@@H](C)CC)C(C)C)C(C)C)[C@@H](C)CC)[C@@H](C)O [compound 1] (Ac-I[β3hD]T[β3hD]FI[β3hD]EEVLMSLVIEMGLDRIKELPELWLGQNEFDFM-NH2) |  | 9.6 ± 2.4 nM | 19 nM |  | 
CC[C@H](C)[C@H](NC(=O)[C@@H]1CCCN1C(=O)[C@H](C)NC(=O)[C@H](CC(N)=O)NC(=O)[C@@H](NC(=O)[C@H](CCC(=O)O)NC(=O)[C@H](CS)NC(=O)[C@H](CC(=O)O)NC(=O)[C@H](Cc1ccc(O)cc1)NC(=O)[C@H](CO)NC(=O)[C@@H](NC(=O)[C@H](CC(C)C)NC(=O)[C@H](CCC(N)=O)NC(=O)[C@@H]1CCCN1C(=O)[C@H](CC(C)C)NC(=O)CNC(=O)[C@H](CO)NC(=O)[C@H](CCC(=O)O)NC(=O)[C@H](CC(=O)O)NC(=O)[C@H](CCSC)NC(=O)[C@H](CO)NC(=O)CCCCCNC(=O)c1ccc2c(c1)C(=O)OC21c2ccc(O)cc2Oc2cc(O)ccc21)[C@@H](C)O)C(C)C)C(=O)N[C@@H](CCC(N)=O)C(=O)NCC(=O)N[C@@H](CO)C(=O)N[C@@H](CCCNC(=N)N)C(=O)N[C@@H](CC(N)=O)C(=O)N[C@@H](CC(C)C)C(=O)N[C@@H](CC(C)C)C(=O)N[C@@H](CCC(N)=O)C(=O)NCC(=O)N[C@@H](CCC(=O)O)C(=O)N[C@@H](CCC(=O)O)C(=O)N[C@@H](CC(C)C)C(=O)N[C@@H](CC(C)C)C(=O)N[C@@H](CCCNC(=N)N)C(=O)N[C@@H](C)C(=O)N[C@@H](CC(C)C)C(=O)N[C@@H](CC(=O)O)C(=O)N[C@@H](CCC(N)=O)C(=O)N[C@H](C(=O)N[C@@H](CC(N)=O)C(N)=O)C(C)C [Flu-HIF-1α] |  |  |  | 64 nM | 
Ac-IDTDFIDEEVLMSLVIEMGLDRIKELPELWLGQNEFDFM-NH2 [CITED2_218–256] |  |  | 11 nM |  | 2 ± 0.9 nM
CC[C@H](C)[C@H](NC(C)=O)C(=O)N[C@@H](CC(=O)O)C(=O)N[C@H](C(=O)N[C@@H](CC(=O)O)C(=O)N[C@@H](Cc1ccccc1)C(=O)N[C@H](C(=O)N[C@@H](CC(=O)O)C(=O)N[C@@H](CCC(=O)O)C(=O)N[C@@H](CCC(=O)O)CC(=O)N[C@H](C(=O)N[C@@H](CC(C)C)C(=O)N[C@@H](CCSC)C(=O)N[C@@H](CO)CC(=O)N[C@@H](CC(C)C)C(=O)N[C@H](C(=O)N[C@H](C(=O)N[C@@H](CCC(=O)O)CC(=O)N[C@@H](CCSC)C(=O)NCC(=O)N[C@@H](CC(C)C)C(=O)N[C@@H](CC(=O)O)C(=O)N[C@@H](CCCNC(=N)N)C(=O)N[C@H](C(=O)N[C@@H](CCCCN)C(=O)N[C@@H](CCC(=O)O)C(=O)N[C@@H](CC(C)C)C(=O)N1CCC[C@H]1C(=O)N[C@@H](CCC(=O)O)C(=O)N[C@@H](CC(C)C)C(=O)N[C@@H](Cc1c[nH]c2ccccc12)C(=O)N[C@@H](CC(C)C)C(=O)NCC(=O)N[C@@H](CCC(N)=O)C(=O)N[C@@H](CC(N)=O)C(=O)N[C@@H](CCC(=O)O)C(=O)N[C@@H](Cc1ccccc1)C(=O)N[C@@H](CC(=O)O)C(=O)N[C@@H](Cc1ccccc1)C(=O)N[C@@H](CCSC)C(N)=O)[C@@H](C)CC)[C@@H](C)CC)C(C)C)C(C)C)[C@@H](C)CC)[C@@H](C)O [compound 2] (Ac-IDTDFIDE[β3hE]VLM[β3hS]LVI[β3hE]MGLDRIKELPELWLGQNEFDFM-NH2) |  | 4.9 ± 0.8 nM | 16 nM |  | 
CC[C@H](C)[C@H](NC(C)=O)C(=O)N[C@@H](CC(=O)O)C(=O)N[C@H](C(=O)N[C@@H](CC(=O)O)C(=O)N[C@@H](Cc1ccccc1)C(=O)N[C@H](C(=O)N[C@@H](CC(=O)O)C(=O)N[C@@H](CCC(=O)O)C(=O)N[C@@H](CCC(=O)O)C(=O)N[C@H](C(=O)N[C@@H](CC(C)C)C(=O)N[C@@H](CCSC)C(=O)N[C@@H](CO)C(=O)N[C@@H](CC(C)C)C(=O)N[C@H](C(=O)N[C@H](C(=O)N[C@@H](CCC(=O)O)C(=O)N[C@@H](CCSC)C(=O)NCC(=O)N[C@@H](CC(C)C)C(=O)N[C@@H](CC(=O)O)C(=O)N[C@@H](CCCNC(=N)N)C(=O)N[C@H](C(=O)N[C@@H](CCCCN)C(=O)N[C@@H](CCC(=O)O)C(=O)N[C@@H](CC(C)C)C(=O)N1CCC[C@H]1C(=O)N[C@@H](CCC(=O)O)C(=O)N[C@@H](CC(C)C)C(=O)N[C@@H](Cc1c[nH]c2ccccc12)C(=O)N[C@@H](CC(C)C)C(=O)NCC(=O)N[C@@H](CCC(N)=O)CC(=O)N[C@@H](CC(N)=O)C(=O)N[C@@H](CCC(=O)O)CC(=O)N[C@@H](Cc1ccccc1)C(=O)N[C@@H](CC(=O)O)CC(=O)N[C@@H](Cc1ccccc1)C(=O)N[C@@H](CCSC)C(N)=O)[C@@H](C)CC)[C@@H](C)CC)C(C)C)C(C)C)[C@@H](C)CC)[C@@H](C)O [compound 4] (Ac-IDTDFIDEEVLMSLVIEMGLDRIKELPELWLG[β3hQ]N[β3hE]F[β3hD]FM-NH2) |  | 1.7 ± 0.7 nM | 17 nM |  | 
